Results: the NIST ThermoML archive (doi:10.1016/j.fluid.2013.09.029)

Settings: Liquid; for mass density: 298.15 K, 101.33 kPa, Vibrating tube method; for vapor or sublimation pressure: Closed cell (Static) method

CCCCCO [pentan-1-ol]
Settings | mass density [kg/m3] | vapor or sublimation pressure [kPa]
– | 811.04 | –
333.1 K | – | 3.1
344.8 K | – | 6
354.4 K | – | 10
362.4 K | – | 14.8
371.2 K | – | 21.9
381.6 K | – | 34.1
391.5 K | – | 50.2
401.7 K | – | 73.1
411.4 K | – | 102.1
422.4 K | – | 145.2

CC(C)(C)O [2-methylpropan-2-ol]
Settings | mass density [kg/m3] | vapor or sublimation pressure [kPa]
– | 781.04 | –
330.9 K | – | 34.9
331.1 K | – | 35.3
340.6 K | – | 54
350.6 K | – | 82.6
360.1 K | – | 121.2
369.5 K | – | 171.4
378.5 K | – | 232.1
387.7 K | – | 310.6
396.7 K | – | 406.4

CCC(C)O (configuration not stated) [butan-2-ol]
Settings | mass density [kg/m3] | vapor or sublimation pressure [kPa]
– | 802.47 | –
332.9 K | – | 18
342.9 K | – | 29.2
352.5 K | – | 45
361.3 K | – | 65
371.1 K | – | 96
381.1 K | – | 137.6
391.9 K | – | 197.5
401.4 K | – | 266.1
412 K | – | 361.8
421.6 K | – | 471.4
